Where no end group is shown, it is not given here.
T1: CCR8 on LPS/IFNγ-activated RAW264.7 macrophages (Mus musculus, UniProt P56484)
T1 construct: endogenous in cells
T1 sequence (P56484 1-353): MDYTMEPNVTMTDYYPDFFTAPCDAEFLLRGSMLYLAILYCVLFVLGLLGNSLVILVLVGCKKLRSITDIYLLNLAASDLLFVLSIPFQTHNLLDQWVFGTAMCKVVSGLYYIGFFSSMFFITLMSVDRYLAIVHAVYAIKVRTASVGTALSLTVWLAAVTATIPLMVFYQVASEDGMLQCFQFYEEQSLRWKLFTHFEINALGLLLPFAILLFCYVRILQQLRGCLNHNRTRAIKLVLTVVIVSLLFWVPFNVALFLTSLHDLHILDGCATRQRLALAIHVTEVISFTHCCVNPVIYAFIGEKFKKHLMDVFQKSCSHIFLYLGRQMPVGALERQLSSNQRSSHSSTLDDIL

B1: CCL1: Human Recombinant I-309 (CCL1), CCR8 ligand (300-37-B, Tebu-bio) (protein, UniProt P22362 24-96, looked up)
C-C motif chemokine 1: KSMQVPFSRCCFSFAEQEIPLRAILCYRNTSSICSNEGLIFKLKRGKEACALDTVGWVQRHRKMLRHCPSKRK

How the values were obtained:
[1] = tested on: RAW264.7 macrophages; assay: Alamar Blue cell viability assay, RAW264.7; format: cell-based, mouse; conditions: 10 μmol/L, 24 h, with or without LPS/IFNγ; three independent experiments
Description: To assess the effects of AP8ii on the cell viability, cells were plated in 24-well plates, cultured overnight and incubated with AP8ii or R243 (10 μmol/L) with or without 100 ng/mL LPS and 10 ng/mL IFNγ (for 24 h, cell viability assays were performed using Alamar Blue reagent (Invitrogen, Carlsbad, CA, USA) as per manufacturer's instructions. The results are represented as% cell viability normalized to untreated control cells (at 100%). All measurements were performed in triplicates in three independent experiments.

[2] = tested on: C57BL/6 mice with CCl4-induced acute liver injury; assay: CCl4-induced acute liver injury mouse model; format: in vivo; conditions: 1 μmol/kg twice daily, 2 days after CCl4
Description: All the animal experiments were carried out according to the ethical guidelines for the Care and Use of Laboratory Animals (Utrecht University, The Netherlands). CCl4 was prepared in olive oil ([…], 63.76 mg/mL) and AP8ii (1 μmol/kg) and R243 (1 μmol/kg) were prepared in hydroxypropyl-β-cyclodextrin (10%) and Kolliphor HS15 (5%) containing MilliQ water (85%). Male C57BL/6 mice (12 weeks old) received a single intraperitoneal injection (IP) of olive oil (healthy n = 9) or 0.2 mL/kg (318.8 mg/kg) CCl4 (vehicle n = 9, AP8 n = 9 and R243 n = 9) on Day 1. On Days 2 and 3, the CCl4-treated mice received vehicle, 1 μmol/kg AP8 (1.157 mg/kg) or 1 μmol/kg R243 (0.35744 mg/kg) twice daily. […] Total alanine aminotransferase (ALT) and aspartate transferase (AST) levels were determined in the plasma samples as per standard biochemical assays.
Cell suspension were prepared from freshly collected liver tissues using the TissueGrinder (TG, Fast Forward Discoveries GmbH, Mannheim, Germany) as detailed earlier. […] Cells were washed 3 times, stained with rat anti-mouse fluorescent antibodies (CD45-APC, CD11b-PE and F4/80-PE/Cy7, 0.2 μg/100 μL, Biolegend) for 1 h, Hoechst 33,342 (10 μg/100 μL, Thermo Fisher) for 30 min, and analyzed within 7 days. […]

[3] = AP8ii peptide stability in human serum by analytic HPLC; format: in vitro ADME; conditions: 37 °C
Description: Analytic HPLC measurements were conducted in an Agilent 1260 Infinity II Liquid Chromatography system, equipped with a Polaris C18 column and a UV–Vis detector. The samples were analyzed with a mobile phase of MilliQ (solvent A) and acetonitrile (solvent B), both containing 0.1% v/v of formic acid, using a 1 mL/min flow rate within a run of 22 min. The gradient ramp was from 1% solvent B up to 60% solvent B in 15 min, then from 60% solvent B to 99% solvent in 5 min, finally 2 min at 99% of solvent B. Each injection used 50 μL, out of the 150 μL in the vial. Detection was performed at λ = 280 nm. Integration of the signals (e.g., peak area) in the chromatogram was performed using OpenLab CDS (data analysis software).
An adapted protocol based on[43] was followed for analysis. In a vial, 475 μL of 1 mmol/L peptide solution was mixed with 50 μL of human serum (making 0.95 mmol/L peptide in 10 vol% serum). The sample was incubated at 37 °C for increasing time. At 0, 1, 2, 4 and 24 h, an aliquot of 125 μL was taken from the vial, quenched with 50 μL of 10% TFA solution in MilliQ and centrifuged for 1 min at 13,000 rpm. Then 150 μL of the supernatant was taken for analysis. Control samples containing only peptide (e.g., without serum) and only human serum (e.g., without peptide) were included. All measurements were conducted in duplicates. Data of peak absolute area were expressed as mean ± standard deviation (SD).

[4] = biological target: T1, CCR8 on LPS/IFNγ-activated RAW264.7 macrophages; assay: Competitive peptide binding study (co-incubation and pre-incubation)
Description: For competitive studies, the peptide binding protocol was used however competition with R243, CCL1 and anti-CCR8 antibody was performed. Two types of competitive studies were performed—co-incubation and pre-incubation where macrophages were either co-incubated with equimolar concentration of R243 (10 μmol/L), CCL1 (100 ng/mL) or anti-CCR8 antibody (5.0 μg/mL, Cat. No. MAB-8324, Novus biologicals, […], USA) and AP8ii (10 μmol/L), or preincubated with R243 (10 μmol/L), CCL1 (100 ng/mL) or anti-CCR8 antibody (5.0 μg/mL) for 2 h followed by addition of AP8ii (10 μmol/L) for an additional 4 h. Finally, images were captured at 10 ×, 20 × and 40 ×, and RhB intensity was analyzed using ImageJ software and normalized to the number of nuclei using DAPI.

Row | Molecule | toxicity (Alamar blue-based metabolic assay) [1] | body weight during treatment [2] | remaining at 24 h, 0.95 mmol/L ([3]; 0.95 mmol/L peptide in 10 vol% human serum, 24 h, TFA quench, analytic HPLC C18, UV 280 nm, peak area, duplicates, read-out: peptide remained intact after 24 h of incubation) [%] | half-life at 0.95 mmol/L ([3]; 0.95 mmol/L peptide in 10 vol% human serum, analytic HPLC UV 280 nm, read-out: t1/2 in human serum) [min] | stability on exposure to serum (peak absolute area) ([3]; 10 vol% human serum, first 4 h, analytic HPLC UV 280 nm) | AP8ii binding blocked, co-incubation study ([4]; competitor (R243 10 μmol/L, CCL1 100 ng/mL, anti-CCR8 antibody 5.0 μg/mL) co-incubated with RhB-labeled AP8ii 10 μmol/L 4 h) [%] | AP8ii binding blocked, pre-incubation study ([4]; competitor (R243 10 μmol/L, CCL1 100 ng/mL, anti-CCR8 antibody 5.0 μg/mL) preincubated 2 h, then RhB-labeled AP8ii 10 μmol/L 4 h) [%]
1 | YEWRFYHG [AP8ii, Tyr-Glu-Trp-Arg-Phe-Tyr-His-Gly] | no significant toxicity | increased | > 82 | > 1440 | remained stable during the first 4 h | – | –
2 | B1 | – | – | – | – | – | ~20 | ~30

Source: publication PMC12137978, “Design, molecular characterization and therapeutic investigation of a novel CCR8 peptide antagonist that attenuates acute liver injury by inhibiting infiltration and activation of macrophages” (Acta Pharmaceutica Sinica. B, 2025)
